pIC50: −log10 of the molar value.
What follows are molecules tested against human Plasma Kallikrein (KLKB1) (Homo sapiens (Human), UniProt P03952) (assay: Inhibition of KLKB1 endpoint assay). Details: fluorogenic substrate H-Pro-Phe-Arg-AMC, 1 hr at Room Temperature, read-out: IC50 measurements for the inhibition of human Plasma Kallikrein (KLKB1).
Assay type: biochemical
Experimental: The ability of compounds of Formula I to inhibit plasma kallikrein (KLKB1), Factor XIIa (FXIIa), Factor XIa (FXIa), Factor Xa (FXa), Factor IIa (alpha-thrombin; FIIa), plasmin, trypsin, tissue kallikrein 1 (KLK1), Factor VIIa (FVIIa), or FVIIa complexed with Tissue Factor, phospholipids and CaCl2 (FVIIa/TF/PL/CaCl2) was determined using the following biochemical assays in assay buffer (100 mM Tris, 150 mM NaCL, adjusted to a pH of 7.8 with HCl, and containing 0.1% (w/v) BSA and 0.05% (v/v) Tween20) in the presence of 1% (v/v) DMSO:
Evaluation of the Inhibition of KLKB1 Using an Endpoint Assay
Subsequently, PPACK II (Calbiochem) was added as a stop solution to achieve a final concentration of 1 μM and fluorescence was measured using an Envision Reader (PerkinElmer) with the wavelength excitation setting of 355 nm and the wavelength emission setting of 460 nm.
The IC50 values were obtained with the aid of the inhibition of KLKB1 endpoint assay described above.

human Plasma Kallikrein (KLKB1), sequence (P03952 391-638): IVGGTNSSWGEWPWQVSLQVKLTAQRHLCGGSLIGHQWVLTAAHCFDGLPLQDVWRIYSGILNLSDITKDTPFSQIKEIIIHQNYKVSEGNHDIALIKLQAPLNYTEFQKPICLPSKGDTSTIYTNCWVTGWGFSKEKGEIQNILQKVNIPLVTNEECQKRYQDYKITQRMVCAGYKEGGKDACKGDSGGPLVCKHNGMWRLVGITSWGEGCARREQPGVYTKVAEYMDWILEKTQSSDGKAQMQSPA
human Plasma Kallikrein (KLKB1), sequence (P03952 20-390 partner): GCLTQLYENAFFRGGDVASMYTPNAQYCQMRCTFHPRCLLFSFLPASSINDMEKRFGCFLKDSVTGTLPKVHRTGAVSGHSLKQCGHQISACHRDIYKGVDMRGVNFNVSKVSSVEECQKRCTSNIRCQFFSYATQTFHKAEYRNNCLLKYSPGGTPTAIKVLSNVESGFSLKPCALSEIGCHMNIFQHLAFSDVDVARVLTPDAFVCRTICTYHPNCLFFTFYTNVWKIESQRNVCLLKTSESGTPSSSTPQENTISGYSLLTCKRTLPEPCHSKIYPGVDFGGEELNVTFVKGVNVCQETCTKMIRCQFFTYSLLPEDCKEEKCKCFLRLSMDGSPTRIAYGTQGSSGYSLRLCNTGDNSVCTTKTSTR

Compound	pIC50
Nc1ccc2c(n1)CCC2NC(=O)c1cn(Cc2ccc(N3CC4CCCN4C3=O)cc2)nn1 (stereo not shown) [Example 63, 1-[4-(3-Oxo-tetrahydro-pyrrolo[1,2-c]imidazol-2-yl)-benzyl]-1H-[1,2,3]triazole-4-carboxylic acid (2-amino-6,7-dihydro-5H-[1]pyrindin-5-yl)-amide]	5.52
Nc1ccc2c(n1)CCC2NC(=O)c1cn(Cc2ccc(CN3CCC4(CC4)C3=O)cc2)nn1 (stereo not shown) [Example 64, 1-[4-(4-Oxo-5-aza-spiro[2.4]hept-5-ylmethyl)-benzyl]-1H-[1,2,3]triazole-4-carboxylic acid (2-amino-6,7-dihydro-5H-[1]pyrindin-5-yl)-amide]	6.24
Nc1ccc2c(n1)CCC2NC(=O)c1cn(Cc2ccc(N3CC4CC4C3=O)cc2)nn1 (stereo not shown) [Example 65, 1-[4-(2-Oxo-3-aza-bicyclo[3.1.0]hex-3-yl)-benzyl]-1H-[1,2,3]triazole-4-carboxylic acid (2-amino-6,7-dihydro-5H-[1]pyrindin-5-yl)-amide]	5.96
Cc1cc(Cn2cc(C(=O)N[C@@H]3CCc4nc(N)ccc43)cn2)ccc1CN1CC2CC2C1=O (stereo partly drawn) [Example 66, 1-[3-Methyl-4-(2-oxo-3-aza-bicyclo[3.1.0]hex-3-ylmethyl)-benzyl]-1H-pyrazole-4-carboxylic acid ((R)-2-amino-6,7-dihydro-5H-[1]pyrindin-5-yl)-amide]	7.74
Cc1cc(CN2CC3CC3C2=O)ccc1Cn1cc(C(=O)N[C@@H]2CCc3nc(N)ccc32)cn1 (stereo partly drawn) [Example 69, 1-[2-Methyl-4-(2-oxo-3-aza-bicyclo[3.1.0]hex-3-ylmethyl)-benzyl]-1H-pyrazole-4-carboxylic acid ((R)-2-amino-6,7-dihydro-5H-[1]pyrindin-5-yl)-amide]	7.26
Nc1ccc2c(n1)CCC2NC(=O)c1cn(Cc2cccc(N3CCN4CCCCC4C3=O)c2)nn1 (stereo not shown) [Example 70, 1-[3-(1-Oxo-octahydro-pyrido[1,2-a]pyrazin-2-yl)-benzyl]-1H-[1,2,3]triazole-4-carboxylic acid (2-amino-6,7-dihydro-5H-[1]pyrindin-5-yl)-amide]	< 5.00
CC(c1ccc(N2CC3CC3C2)nc1)n1cc(C(=O)N[C@@H]2CCc3c2ccnc3N)cn1 (stereo partly drawn) [Example 71, 1-{1-[6-(3-Aza-bicyclo[3.1.0]hex-3-yl)-pyridin-3-yl]-ethyl}-1H-pyrazole-4-carboxylic acid ((R)-1-amino-6,7-dihydro-5H-[2]pyrindin-5-yl)amide]	8.05
Nc1nccc2c1CC[C@H]2NC(=O)c1cnn(C2(c3ccc(N4CC5CC5C4)nc3)CC2)c1 (stereo partly drawn) [Example 74, 1-{1-[6-(3-Aza-bicyclo[3.1.0]hex-3-yl)-pyridin-3-yl]-cyclopropyl}-1H-pyrazole-4-carboxylic acid ((R)-1-amino-6,7-dihydro-5H-[2]pyrindin-5-yl)amide]	7.39
Nc1nccc2c1CC[C@H]2NC(=O)c1cnn(Cc2ccc(N3CC4CC4C3)nc2)c1 (stereo partly drawn) [Example 75, 1-[6-(3-Aza-bicyclo[3.1.0]hex-3-yl)-pyridin-3-ylmethyl]-1H-pyrazole-4-carboxylic acid ((R)-1-amino-6,7-dihydro-5H-[2]pyrindin-5-yl)amide]	9.00
Nc1ccc2c(n1)CC[C@H]2NC(=O)c1cnn(Cc2ccc(N3CC4CC4C3)nc2)c1 (stereo partly shown) [Example 76]	8.10
Nc1nccc2c1CC[C@H]2NC(=O)c1cn(Cc2ccc(N3CC4CC4C3)nc2)nc1C(F)(F)F (stereo partly shown) [Example 77]	8.70
Nc1ccc2c(n1)CC[C@H]2NC(=O)c1cn(Cc2ccc(N3CC4CC4C3)nc2)nc1C(F)(F)F (stereo partly shown) [Example 78]	7.68
Nc1nccc2c1CC[C@H]2NC(=O)c1cnn(Cc2ccc(N3CC4CCC4C3)nc2)c1 (stereo partly shown) [Example 79]	8.10
Nc1nccc2c1CC[C@H]2NC(=O)c1cnn(Cc2cnc(N3CC4CC4C3)nc2)c1 (stereo partly shown) [Example 80]	8.52
Nc1ccc2c(n1)CC[C@H]2NC(=O)c1cnn(Cc2cnc(N3CC4CC4C3)nc2)c1 (stereo partly shown) [Example 81]	7.72
Nc1nccc2c1CC[C@H]2NC(=O)c1cn(Cc2cnc(N3CC4CC4C3)nc2)nn1 (stereo partly shown) [Example 82]	8.15
Nc1ccc2c(n1)CC[C@H]2NC(=O)c1cn(Cc2cnc(N3CC4CC4C3)nc2)nn1 (stereo partly shown) [Example 83]	7.14
Nc1nccc2c1CC[C@H]2NC(=O)c1cnn(Cc2ccc(N3CC4C(C3)C4(F)F)nc2)c1 (stereo partly shown) [Example 84]	9.00
Nc1nccc2c1CC[C@H]2NC(=O)c1cnn(Cc2cnc(N3CC4CC4C3)cn2)c1 (stereo partly shown) [Example 85]	8.40
Nc1ccc2c(n1)CC[C@H]2NC(=O)c1cnn(Cc2cnc(N3CC4CC4C3)cn2)c1 (stereo partly shown) [Example 86]	7.47
Cc1cc(N)nc2c1C(NC(=O)c1cn(Cc3ccc(N4CC5COCCN5C4=O)cc3)nn1)CC2 (stereo not shown) [Example 87, 1-[4-(3-Oxo-tetrahydro-imidazo[5,1-c][1,4]oxazin-2-yl)-benzyl]-1H-[1,2,3]triazole-4-carboxylic acid (2-amino-4-methyl-6,7-dihydro-5H-[1]pyrindin-5-yl)-amide]	5.49
Nc1nccc2c1CC[C@H]2NC(=O)c1cnn(Cc2ccc(N3CCC4(CC4)C3)nc2)c1 [Example 89]	8.30
Nc1nccc2c1CC[C@H]2NC(=O)c1cnn(Cc2ccc(N3CC4(COC4)C3)nc2)c1 [Example 90]	7.11
Nc1nccc2c1CC[C@H]2NC(=O)c1cnn(Cc2ccc(N3C[C@@H]4[C@@H](CO)[C@@H]4C3)nc2)c1 [Example 91]	7.42
Nc1ccc2c(n1)CC[C@H]2NC(=O)c1cn(Cc2cnc(N3CC4CC4C3)nc2)nc1C(F)(F)F (stereo partly shown) [Example 92]	7.64
